What all share (assay type): cell-based, murine
For one assay, the system named is BaF3-KRASD12. Put plainly: Oncogenic RAS dependent cell proliferation (CellTiter Glo). The note with it: Mus musculus, BaF3-KRASD12 cells, 48 hours, read-out: KRas-BaF3 IC50. On the procedure: (§1) The BaF/3 cell line transformed with oncogenic NRAS or KRAS (BaF/3-NRASD12 or BaF/3-KRASD12) and the parental BaF/3 cells were used to measure the abilities of compounds of the invention to suppress RAS transformation (Table 5). Cells were seeded at a density of 5000 cells/well into 96-well plates. […] The background control wells to which media with no cells added and the vehicle control wells were included on each plate in triplicate. Cell viability was determined using CellTiter Glo Assay (Promega) according to manufacture's instruction with a minor modification of diluting 1 part CellTiter Glo reagent to 4 parts phosphate buffered saline (PBS) before use. The luminescence value was read out by an Envision (PerkinElmer).
On the technique in general: ATP-based viability assays read luminescence as a measure of living cells.

The next assay relates to BaF3-NRASD12. The description is as above. The conditions noted are these: Mus musculus, BaF3-NRASD12 cells, 48 hours, read-out: NRas-BaF3 IC50. On the procedure:
as §1

The subject of a further assay is Wt-BaF3. Kind of assay: Parental Ba/F3 cell proliferation (CellTiter Glo). The conditions noted are these: Mus musculus, parental BaF/3 cells, 48 hours. The method, then:
(§2) The murine cell line used is the BaF/3 cell line transformed with BCR/ABL cDNA (BaF/3-p210) or BCR/ABL-T315I mutant (Ba/F3-p210-T315I). These cells are maintained in RPMI/10% fetal calf serum (RPMI/FCS) supplemented with penicillin 50 μg/mL, streptomycin 50 μg/mL and L-glutamine […]. Untransformed BaF/3 cells (Wt-BaF/3) are similarly maintained with the addition of 15% of WEHI conditioned medium as a source of IL3.
as §1

The next assay addresses T1, BaF3-EML4-ALK (Homo sapiens, UniProt Q9UM73).
T1 construct: fused on or other part: Q9HC35 (Echinoderm microtubule-associated protein-like 4)
Kind of assay: Antiproliferative activity, kinase-dependent Ba/F3 cells (MTT/MTS). The conditions noted are these: 48 hours, cell viability, read-out: EML4-ALK IC50. The method, then: (§3) Following up on the kinome data, the ability of compounds disclosed in the present invention to inhibit proliferation of cells that are dependent on selected protein kinases was tested. […] In addition, compounds were assayed to measure their capacity to inhibit TIE1, LYN, EML4-ALK, INSR and HCK kinases.
as §2
(§4) Cells were seeded at a density of 20,000 cells/well into 96-well plates.
(§5) The background control wells to which media with no cells added and the vehicle control wells were included on each plate in triplicate. Cell viability was determined using MTT (Sigma, St. Louis, Mo., USA) and MTS (Promega, Madison, Wis., USA), according to the manufacturer's instructions. Results were analyzed using GraphPad Prism 5.0 (GraphPad Software, San Diego, Calif.) and IC50 values were calculated from cell viability dose-response curves and defined as the concentration of compound needed to reduce cell viability to 50% of a vehicle control (DMSO) (Table 3).
(§6) Cell proliferation assays of compounds of the invention against TIE1, LYN, EML4-ALK, INSR and Hck were conducted using identical methods as described above for BCR/ABL, except that BaF3-TEL-TIE1, BaF3-TEL-LYN, BaF3-EML4-ALK, BaF3-TEL-INSR, and BaF3-TEL-HCK are used instead of BaF3-BCR/ABL (Table 3 and 4).

A further assay has as its target T2, BaF3-TEL-LYN (Homo sapiens, UniProt P07948).
T2 construct: fused on or other part: P41212 (Transcription factor ETV6)
Described as above. The note with it: 48 hours, cell viability, read-out: tel-LYN IC50. The method, then:
as §3, §2, §4, §5, §6

The target in another assay is T3, BaF3-TEL-TIE1 (Homo sapiens, UniProt P35590).
T3 construct: fused on or other part: P41212 (Transcription factor ETV6)
Described as above. The conditions noted are these: 48 hours, cell viability, read-out: tel-TIE1 IC50. On the procedure: as §3, §2, §4, §5, §6

The target of a further assay is T4, BaF3-TEL-INSR (Homo sapiens, UniProt P06213).
T4 construct: fused on or other part: P41212 (Transcription factor ETV6)
T4 sequence (P06213 whole entry, stated change not applied, the tested form may be a part): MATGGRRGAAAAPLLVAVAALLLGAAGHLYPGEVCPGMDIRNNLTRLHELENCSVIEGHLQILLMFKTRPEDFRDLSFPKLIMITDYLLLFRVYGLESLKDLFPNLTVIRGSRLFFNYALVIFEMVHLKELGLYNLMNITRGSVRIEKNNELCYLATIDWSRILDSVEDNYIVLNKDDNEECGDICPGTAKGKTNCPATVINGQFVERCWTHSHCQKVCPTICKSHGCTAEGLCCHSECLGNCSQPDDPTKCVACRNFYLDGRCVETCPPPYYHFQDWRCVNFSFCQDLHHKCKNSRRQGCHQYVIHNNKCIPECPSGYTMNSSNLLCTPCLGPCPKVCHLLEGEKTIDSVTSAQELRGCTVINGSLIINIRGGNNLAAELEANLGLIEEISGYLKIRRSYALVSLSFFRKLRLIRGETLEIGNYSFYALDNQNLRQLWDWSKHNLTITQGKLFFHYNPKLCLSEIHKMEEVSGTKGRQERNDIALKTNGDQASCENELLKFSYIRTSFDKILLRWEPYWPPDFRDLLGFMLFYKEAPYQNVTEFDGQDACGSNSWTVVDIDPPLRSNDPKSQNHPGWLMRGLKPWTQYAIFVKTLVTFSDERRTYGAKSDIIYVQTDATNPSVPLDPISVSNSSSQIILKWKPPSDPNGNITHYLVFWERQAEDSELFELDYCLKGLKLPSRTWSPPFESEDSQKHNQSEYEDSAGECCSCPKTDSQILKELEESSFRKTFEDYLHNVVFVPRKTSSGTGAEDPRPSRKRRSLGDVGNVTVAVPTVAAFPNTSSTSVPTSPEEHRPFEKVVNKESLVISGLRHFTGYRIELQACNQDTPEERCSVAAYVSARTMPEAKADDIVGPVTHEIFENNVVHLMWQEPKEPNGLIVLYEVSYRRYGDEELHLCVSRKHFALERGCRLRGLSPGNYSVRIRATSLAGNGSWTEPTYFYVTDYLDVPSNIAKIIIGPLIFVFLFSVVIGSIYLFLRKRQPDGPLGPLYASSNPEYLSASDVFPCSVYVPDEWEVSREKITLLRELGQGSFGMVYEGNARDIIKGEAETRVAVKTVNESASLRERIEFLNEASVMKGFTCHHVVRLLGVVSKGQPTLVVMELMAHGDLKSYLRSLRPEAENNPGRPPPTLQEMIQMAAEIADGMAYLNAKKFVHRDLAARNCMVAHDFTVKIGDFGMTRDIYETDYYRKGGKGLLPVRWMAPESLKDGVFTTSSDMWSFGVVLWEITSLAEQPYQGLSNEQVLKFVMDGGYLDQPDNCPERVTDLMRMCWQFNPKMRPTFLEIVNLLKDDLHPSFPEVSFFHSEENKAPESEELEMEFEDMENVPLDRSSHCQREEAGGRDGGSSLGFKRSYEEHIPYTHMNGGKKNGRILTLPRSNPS
The description is as above. The note with it: 48 hours, cell viability, read-out: Tel-INSR IC50. On the procedure: as §3, §2, §4, §5, §6

The target in the next assay is T5, BaF3-TEL-HCK (Homo sapiens, UniProt P08631).
T5 construct: fused on or other part: P41212 (Transcription factor ETV6)
T5 sequence (P08631 whole entry, change not shown, the tested form may be a part): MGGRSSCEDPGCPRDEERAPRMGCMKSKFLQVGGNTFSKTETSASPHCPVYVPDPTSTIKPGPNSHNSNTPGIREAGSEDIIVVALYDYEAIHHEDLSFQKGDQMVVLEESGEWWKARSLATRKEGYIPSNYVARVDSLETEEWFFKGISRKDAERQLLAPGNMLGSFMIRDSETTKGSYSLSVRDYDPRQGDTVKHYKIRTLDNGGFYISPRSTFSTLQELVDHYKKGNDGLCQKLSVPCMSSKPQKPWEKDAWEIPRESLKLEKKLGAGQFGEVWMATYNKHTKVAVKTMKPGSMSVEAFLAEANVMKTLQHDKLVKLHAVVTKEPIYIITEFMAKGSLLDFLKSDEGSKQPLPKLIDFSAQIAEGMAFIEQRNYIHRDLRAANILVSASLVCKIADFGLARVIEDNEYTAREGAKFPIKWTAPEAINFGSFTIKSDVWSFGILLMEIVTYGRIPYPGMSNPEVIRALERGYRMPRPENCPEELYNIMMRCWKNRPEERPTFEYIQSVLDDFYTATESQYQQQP
The description is as above. The note with it: 48 hours, cell viability, read-out: Tel-HCK IC50. The method, then: as §3, §2, §4, §5, §6

In the next assay the target is T6, BaF3-BCR/ABL (Homo sapiens, UniProt P00519).
T6 construct: fused on or other part: P11274 (Breakpoint cluster region protein)
Described as above. The note with it: 48 hours, cell viability, read-out: BCR/ABL IC50. The method, then: as §3, §2, §4, §5

A further assay has as its target T7, BaF3-BCR/ABL-T315I (Homo sapiens, UniProt P00519, T315I, cells depend on it).
T7 construct: fused on or other part: P11274 (Breakpoint cluster region protein)
The assay is described as above. The conditions noted are these: 48 hours, cell viability, read-out: BCR/ABL T315I IC50. On the procedure:
as §3, §2, §4, §5

T2 sequence (P07948 whole entry, change not shown, the tested form may be a part): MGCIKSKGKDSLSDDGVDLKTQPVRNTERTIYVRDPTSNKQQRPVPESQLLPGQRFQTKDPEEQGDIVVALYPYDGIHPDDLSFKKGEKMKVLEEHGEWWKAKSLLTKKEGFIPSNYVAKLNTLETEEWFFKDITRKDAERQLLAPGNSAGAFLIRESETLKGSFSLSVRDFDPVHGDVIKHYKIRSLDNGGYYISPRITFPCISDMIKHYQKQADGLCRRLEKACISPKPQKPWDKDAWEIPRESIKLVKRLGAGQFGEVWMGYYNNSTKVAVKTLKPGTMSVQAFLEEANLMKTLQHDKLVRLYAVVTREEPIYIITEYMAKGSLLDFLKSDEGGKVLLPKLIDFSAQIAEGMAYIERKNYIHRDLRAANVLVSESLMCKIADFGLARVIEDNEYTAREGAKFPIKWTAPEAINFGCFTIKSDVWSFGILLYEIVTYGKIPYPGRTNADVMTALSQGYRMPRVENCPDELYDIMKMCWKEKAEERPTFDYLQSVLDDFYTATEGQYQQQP
T1 sequence (Q9UM73 whole entry, change not shown, the tested form may be a part): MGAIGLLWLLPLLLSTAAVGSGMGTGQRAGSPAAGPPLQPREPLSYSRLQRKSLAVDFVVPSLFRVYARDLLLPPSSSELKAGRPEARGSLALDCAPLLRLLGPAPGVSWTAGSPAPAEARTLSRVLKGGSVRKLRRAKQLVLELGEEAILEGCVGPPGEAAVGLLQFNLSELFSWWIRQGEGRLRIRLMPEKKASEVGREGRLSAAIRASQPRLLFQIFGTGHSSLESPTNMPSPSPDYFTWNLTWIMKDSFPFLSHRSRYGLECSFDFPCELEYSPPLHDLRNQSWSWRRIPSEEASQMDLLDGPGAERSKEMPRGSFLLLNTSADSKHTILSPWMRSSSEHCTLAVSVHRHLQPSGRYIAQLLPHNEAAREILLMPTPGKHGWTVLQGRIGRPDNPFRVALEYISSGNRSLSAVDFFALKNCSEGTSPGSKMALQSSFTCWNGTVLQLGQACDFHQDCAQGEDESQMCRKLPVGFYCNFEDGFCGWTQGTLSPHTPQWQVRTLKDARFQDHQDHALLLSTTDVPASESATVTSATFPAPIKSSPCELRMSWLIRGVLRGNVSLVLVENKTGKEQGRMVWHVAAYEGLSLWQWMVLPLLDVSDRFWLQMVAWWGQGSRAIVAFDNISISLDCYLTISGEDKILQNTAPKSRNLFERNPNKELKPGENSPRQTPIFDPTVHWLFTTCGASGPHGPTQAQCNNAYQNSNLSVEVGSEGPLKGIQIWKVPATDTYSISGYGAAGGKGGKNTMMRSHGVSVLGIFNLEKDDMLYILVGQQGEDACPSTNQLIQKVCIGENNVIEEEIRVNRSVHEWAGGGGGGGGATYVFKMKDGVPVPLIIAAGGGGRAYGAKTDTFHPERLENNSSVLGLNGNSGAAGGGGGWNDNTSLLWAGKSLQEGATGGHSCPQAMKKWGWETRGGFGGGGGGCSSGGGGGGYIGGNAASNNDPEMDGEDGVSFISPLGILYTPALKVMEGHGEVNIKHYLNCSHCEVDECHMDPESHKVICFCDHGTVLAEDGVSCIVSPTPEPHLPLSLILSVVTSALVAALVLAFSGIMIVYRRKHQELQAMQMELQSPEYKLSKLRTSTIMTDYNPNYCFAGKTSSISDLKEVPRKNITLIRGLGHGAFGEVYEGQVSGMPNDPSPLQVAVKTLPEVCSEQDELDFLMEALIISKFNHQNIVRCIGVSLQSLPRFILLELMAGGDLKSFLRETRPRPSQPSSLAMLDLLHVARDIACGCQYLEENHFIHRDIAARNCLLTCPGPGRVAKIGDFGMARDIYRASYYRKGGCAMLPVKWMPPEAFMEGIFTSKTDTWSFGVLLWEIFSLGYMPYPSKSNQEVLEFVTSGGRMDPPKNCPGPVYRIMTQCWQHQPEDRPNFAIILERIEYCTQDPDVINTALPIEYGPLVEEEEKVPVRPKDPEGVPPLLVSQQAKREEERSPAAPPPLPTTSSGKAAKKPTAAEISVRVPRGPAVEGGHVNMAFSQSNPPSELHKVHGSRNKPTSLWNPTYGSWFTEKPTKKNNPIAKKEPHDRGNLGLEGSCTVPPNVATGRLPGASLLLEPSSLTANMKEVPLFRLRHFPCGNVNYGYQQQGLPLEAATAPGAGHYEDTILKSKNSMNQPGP

As to `COc1cc(C(=O)N2CCN(C)CC2)ccc1Nc1ncc2c(n1)N(C)CN(c1cc(NC(=O)c3cccc(C(F)(F)F)c3)ccc1C)C2` [IA-16, N-(3-(7-((2-methoxy-4-(4-methylpiperazine-1-carbonyl)phenyl)amino)-1-methyl-1,4-dihydropyrimido[4,5-d]pyrimidin-3(2H)-yl)-4-methylphenyl)-3-(trifluoromethyl)benzamide], the 50% inhibitory concentration (IC50) (usually the concentration at which inhibition is half-maximal) in the assay with BaF3-KRASD12 came out at 4310 nM; in the assay on BaF3-NRASD12, 4410 nM; in the assay on Wt-BaF3, 4420 nM. Moreover, the GI50 at BaF3-EML4-ALK is 1540 nM; at BaF3-TEL-LYN, 2000 nM; at BaF3-TEL-TIE1 it was 1580 nM; on BaF3-TEL-INSR, 3960 nM; at BaF3-TEL-HCK, 2880 nM; at BaF3-BCR/ABL, 1710 nM. Besides, the GI50 at BaF3-BCR/ABL-T315I was 4370 nM.

Regarding `Cc1ccc(Nc2ncc3c(n2)N(C2CCCC2)CN(c2cc(NC(=O)c4cccc(C(F)(F)F)c4)ccc2C)C3)cn1` [IB-3, N-(3-(1-cyclopentyl-7-((6-methylpyridin-3-yl)amino)-1,4-dihydropyrimido[4,5-d]pyrimidin-3(2H)-yl)-4-methylphenyl)-3-(trifluoromethyl)benzamide], the IC50 came out at 5840 nM in the assay on BaF3-KRASD12, 5970 nM in the assay on BaF3-NRASD12 and 9710 nM in the assay with Wt-BaF3. The GI50 stood at 5880 nM at BaF3-EML4-ALK; 3300 nM on BaF3-TEL-LYN; 3820 nM on BaF3-TEL-TIE1; 3150 nM at BaF3-TEL-HCK; 303 nM on BaF3-BCR/ABL; 9230 nM at BaF3-BCR/ABL-T315I.

In the case of `Cc1cc(Nc2ncc3c(n2)N(C)CN(c2cc(NC(=O)c4cccc(C(F)(F)F)c4)ccc2C)C3)n(C)n1` [IA-11, N-(3-(7-((1,3-dimethyl-1H-pyrazol-5-yl)amino)-1-methyl-1,4-dihydropyrimido[4,5-d]pyrimidin-3(2H)-yl)-4-methylphenyl)-3-(trifluoromethyl)benzamide], the half-inhibitory concentration (IC50) in the assay with BaF3-KRASD12 came to 1490 nM; in the assay on BaF3-NRASD12 it was 1020 nM; in the assay on Wt-BaF3, 13500 nM. The GI50 at BaF3-EML4-ALK amounted to 2220 nM; at BaF3-TEL-LYN, 927 nM; on BaF3-TEL-TIE1, 736 nM; on BaF3-TEL-INSR, 2280 nM; on BaF3-TEL-HCK it was 1390 nM; on BaF3-BCR/ABL, 7.96 nM. The GI50 at BaF3-BCR/ABL-T315I came to 1760 nM.

`Cc1ccc(NC(=O)c2cccc(C(F)(F)F)c2)cc1N1Cc2cnc(Nc3ccc(N4CCOCC4)nc3)nc2N(C)C1` [IA-15, N-(4-methyl-3-(1-methyl-7-((6-morpholinopyridin-3-yl)amino)-1,4-dihydropyrimido[4,5-d]pyrimidin-3(2H)-yl)phenyl)-3-(trifluoromethyl)benzamide]: the results for the IC50 in the assay on BaF3-KRASD12, in the assay with BaF3-NRASD12 and in the assay with Wt-BaF3 were 388 nM, 404 nM and 1770 nM, respectively. Further, the GI50 came to 1160 nM at BaF3-EML4-ALK; 264 nM at BaF3-TEL-LYN; 355 nM at BaF3-TEL-TIE1; 902 nM on BaF3-TEL-INSR; 680 nM at BaF3-TEL-HCK; 4.18 nM on BaF3-BCR/ABL. Moreover, the GI50 at BaF3-BCR/ABL-T315I amounted to 132 nM.

For the molecule `Cc1ccc(Nc2ncc3c(n2)N(C2CC2)CN(c2cc(NC(=O)c4cccc(C(F)(F)F)c4)ccc2C)C3)cn1` [IB-2, N-(3-(1-cyclopropyl-7-((6-methylpyridin-3-yl)amino)-1,4-dihydropyrimido[4,5-d]pyrimidin-3(2H)-yl)-4-methylphenyl)-3-(trifluoromethyl)benzamide], the 50% inhibitory concentration (IC50) in the assay on BaF3-KRASD12 was determined as 1780 nM; with BaF3-NRASD12 it was 1400 nM; with Wt-BaF3, 6030 nM. The GI50 amounted to 3130 nM on BaF3-EML4-ALK; 1200 nM at BaF3-TEL-LYN; 1090 nM on BaF3-TEL-TIE1; 2160 nM on BaF3-TEL-INSR; 2090 nM on BaF3-TEL-HCK; 53.8 nM at BaF3-BCR/ABL. In addition, the GI50 on BaF3-BCR/ABL-T315I was 2900 nM.

For `Cc1ccc(NC(=O)c2cccc(C(F)(F)F)c2)cc1N1Cc2cnc(NCCN(C)C)nc2N(C)C1` [IA-2, N-(3-(7-((2-(dimethylamino)ethyl)amino)-1-methyl-1,4-dihydropyrimido[4,5-d]pyrimidin-3(2H)-yl)-4-methylphenyl)-3-(trifluoromethyl)benzamide], the IC50 with BaF3-KRASD12 is 3980 nM; in the assay on BaF3-NRASD12 it was 3380 nM; in the assay with Wt-BaF3 it was 4540 nM. Besides, the GI50 at BaF3-EML4-ALK was around 2780 nM; on BaF3-TEL-LYN, 1320 nM; at BaF3-TEL-TIE1, 1590 nM; at BaF3-TEL-INSR, 1330 nM; at BaF3-TEL-HCK, 2560 nM; at BaF3-BCR/ABL it was above 10000 nM.

On to `Cc1ccc(NC(=O)c2cccc(C(F)(F)F)c2)cc1N1Cc2cnc(Nc3cnn(C)c3)nc2N(C)C1` [IA-10, N-(4-methyl-3-(1-methyl-7-((1-methyl-1H-pyrazol-4-yl)amino)-1,4-dihydropyrimido[4,5-d]pyrimidin-3(2H)-yl)phenyl)-3-(trifluoromethyl)benzamide], for which the half-inhibitory concentration (IC50) is 4600 nM in the assay on BaF3-KRASD12, 2900 nM in the assay on BaF3-NRASD12 and 11800 nM in the assay on Wt-BaF3. Moreover, the GI50 on BaF3-EML4-ALK was 4640 nM; on BaF3-TEL-LYN, 1430 nM; on BaF3-TEL-TIE1, 2320 nM; on BaF3-TEL-HCK, 1770 nM; on BaF3-BCR/ABL it was 0.251 nM; at BaF3-BCR/ABL-T315I, 2760 nM.

For `Cc1ccc(Nc2ncc3c(n2)N(c2ccccc2)CN(c2cc(NC(=O)c4cccc(C(F)(F)F)c4)ccc2C)C3)cn1` [IB-4, N-(4-methyl-3-(7-((6-methylpyridin-3-yl)amino)-1-phenyl-1,4-dihydropyrimido[4,5-d]pyrimidin-3(2H)-yl)phenyl)-3-(trifluoromethyl)benzamide], the figures for the IC50 in the assay on BaF3-KRASD12, in the assay with BaF3-NRASD12 and in the assay with Wt-BaF3 were 5360 nM, 4930 nM and 17100 nM, respectively. Further, the GI50 is above 10000 nM on BaF3-EML4-ALK; 4110 nM at BaF3-TEL-LYN; 3680 nM on BaF3-TEL-TIE1; 4610 nM at BaF3-TEL-HCK; 669 nM on BaF3-BCR/ABL.

Consider `Cc1ccc(NC(=O)c2cccc(C(F)(F)F)c2)cc1N1Cc2cnc(NCCc3c[nH]cn3)nc2N(C)C1` [IA-6, N-(3-(7-((2-(1H-imidazol-4-yl)ethyl)amino)-1-methyl-1,4-dihydropyrimido[4,5-d]pyrimidin-3(2H)-yl)-4-methylphenyl)-3-(trifluoromethyl)benzamide], for which the IC50 in the assay with BaF3-KRASD12 was found to be 5530 nM; with BaF3-NRASD12 it was 5500 nM; in the assay on Wt-BaF3 it was 5140 nM. Moreover, the GI50 is around 3360 nM at BaF3-EML4-ALK; around 3210 nM on BaF3-TEL-LYN; 3700 nM on BaF3-TEL-TIE1; 2220 nM on BaF3-BCR/ABL; 4450 nM at BaF3-BCR/ABL-T315I.

Regarding `CNc1ncc2c(n1)N(C)CN(c1cc(NC(=O)c3cccc(C(F)(F)F)c3)ccc1C)C2` [IA-3, N-(4-methyl-3-(1-methyl-7-(methylamino)-1,4-dihydropyrimido[4,5-d]pyrimidin-3(2H)-yl)phenyl)-3-(trifluoromethyl)benzamide], the IC50 in the assay on BaF3-KRASD12 is 6470 nM; with BaF3-NRASD12, 11500 nM; with Wt-BaF3 it was 12400 nM. Moreover, the GI50 was 6340 nM on BaF3-EML4-ALK; 4090 nM at BaF3-TEL-LYN; 5470 nM at BaF3-TEL-TIE1; 1040 nM on BaF3-BCR/ABL; above 10000 nM on BaF3-BCR/ABL-T315I.

These data come from patent US10364247B2, “Preparation and use of novel protein kinase inhibitors” (Ruijin Hospital Affiliated to Shanghai Jiao Tong University …, priority 2015, dated 2019).
